Measurements taken from US4264577A, “Contraceptive methods and compositions” (Eli Lilly and Company, priority 1980, dated 1981).

What was measured:
[1] = biological target: T1, Acrosin (purified from boar sperm) (Sus scrofa, UniProt P08001); test: Acrosin inhibition in vitro (BAPNA substrate); assay type: biochemical; details: sodium salts
T1 construct: purified from boar sperm; from tissue; host or cells: boar sperm
Procedure: A control using the buffer solution without the test compound added is also run. A 200 μl-sample of the incubation mixture is then withdrawn and is added to a cuvette containing BAPNA (1 ml.) and triethanolamine buffer (2 ml.). The mixture is stirred and placed in a Gilford recording spectrophotometer. The increase in optical density at 383 nm is measured. One unit of acrosin activity is defined as the amount of acrosin which will cause an increase in optical density at 383 nm. of 0.001/minute. One unit of inhibitory activity is defined as the amount of inhibitor which will cause a reduction in the increase in optical density at 383 nm. of 0.001/minute.

[2] = Drug release rate in vitro from dimethylpolysiloxane rubber rod, Method B (water, methylene blue method); assay type: physicochemical; details: rod 341.4 mg, 10% W/W
Procedure: A dimethylpolysiloxane rubber rod (3 cm. long, 3 mm. diameter) weighing 341.4 mg. and containing 10% (W/W) of dispersed sodium n-tetradecyl sulfate (prepared by Example 3, Method B, lot no. 225-1) is placed in a container and is covered with 10 ml. of water. The rod and the water are incubated together at 37° C. for a seven-day period, after which the water is removed. The sodium n-tetradecyl sulfate in the water is determined by the methylene blue method as described by K. Hiyashi, Analytical Biochemistry, 67, 503 (1975).
The above procedure may be repeated at 7-day intervals by adding fresh water to the rod after each removal of water for assay. Table 5, below, gives the results of a test performed as above-described for 140 days.

[3] = system: virgin dutch belted female rabbit; test: Antifertility effect by intravaginal administration (K-Y jelly mixture); assay type: in vivo; details: 1 ml of K-Y jelly mixed with equal volume of 10 mg./ml. solution, 4 animals
Procedure: Equal volumes of K-Y-jelly® and either Ca^++ free Ringer's solution or a 10 mg./ml. solution of the compound to be tested in Ca^++ free Ringer's solution are well mixed. One milliliter of this is placed into the vagina of a virgin dutch belted female rabbit using a syringe. The female is then immediately bred to a fertile buck. The female is injected I.V. with […] of human chorionic gonadotrophin to assure a good ovulation rate.
After approximately 14 days the females are sacrificed by cervical dislocation and the genital system examined for the number of embryos.

rabbits = test: Efficacy in vivo, rods sutured into both uterine horns, bred weekly; set-up: species or system rabbit; details: five rabbits, rods 20% (W/W) in both uterine horns, bred weekly for 225 days
From the text: (b) Five rabbits having rods containing 20% (W/W) sodium tetradecyl
sulfate (as described above) sutured into both uterine horns were bred

[4] = system: zona pellucida of rabbit ova; test: Removal of zona pellucida from ova by acrosin, in vitro; assay type: cell-based; details: 10 μl. of 10 mg./ml. solution, 37° C.; sulfate
Procedure: In the absence of sodium n-tetradecyl sulfate, complete removal of the cumulus oophorus and zona pellucida is observed.
Female rabbits are given 100 units of pregnant mares serum (PMS), IM, and 134 units of HCG, IV. After 13 hours the animals are sacrificed and the ovaries are excised. The ovaries are submerged in calcium-free Ringer's solution. Ova are removed and placed in 1 ml. of calcium-free Ringer's solution The solutions are all shaken vigorously for 5 to 10 minutes, which rids the ova of the cumulus oophorus and the corona radiata. Acrosin (isolated from boar sperm) (100 μl., of a solution containing 2000 U/ml. in 0.1 M sodium acetate and 0.02 M calcium chloride) is added to each of 10 ova. To each of 10 other ova in the same medium is added 10 μl. of solution of sodium n-tetradecyl sulfate (10 mg./ml.) in calcium-free Ringer's solution. To 10 other ova is added […]. of calcium-free Ringer's solution as a control. The solutions are all incubated at 37° C. The zona pellucida is observed at 15 minute intervals with an American Optical stereomicroscope. In the absence of sodium n-tetradecyl sulfate, the zona pellucida is completely removed.

[5] = system: female Dutch belted rabbits; test: Efficacy of a vaginal suppository in female rabbits; assay type: in vivo, rabbit; details: 100 mg. PEG suppository with 1 mg. compound, 15 minutes before breeding; 6 animals; after 12 days
Procedure: Suppositories weighing 100 mg. are made to contain 1 mg. of sodium n-tetradecyl sulfate in a vehicle consisting of 35% polyethylene glycol 400, 35% polyethylene glycol 1540, and 30% polyethylene glycol 4000. A suppository is placed in the vagina of each of six female Dutch belted rabbits. After 15 minutes, each rabbit is bred to a buck of proven fertility and is injected with 100 I.U. of human chorionic gonadotropin. Each of six control animals are similarly treated using identical 100 mg. suppositories made from the same vehicle without the active compound. The animals are sacrificed after 12 days and are examined for embryos.

mice = details: I.P. (mice); cited from earlier work

T1 sequence (P08001 40-338 limits assumed): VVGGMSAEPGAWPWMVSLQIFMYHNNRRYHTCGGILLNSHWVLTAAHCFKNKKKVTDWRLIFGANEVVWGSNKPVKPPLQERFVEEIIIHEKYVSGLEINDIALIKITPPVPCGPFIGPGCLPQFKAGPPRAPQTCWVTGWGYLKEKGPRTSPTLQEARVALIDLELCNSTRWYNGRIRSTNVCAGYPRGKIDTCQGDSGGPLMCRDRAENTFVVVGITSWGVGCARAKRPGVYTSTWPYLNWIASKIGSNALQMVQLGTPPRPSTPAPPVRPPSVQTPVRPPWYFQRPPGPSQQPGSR
T1 sequence (P08001 17-39 limits assumed): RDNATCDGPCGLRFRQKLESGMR

CCCCCCCCCCCCCCOS(=O)(=O)[O-].[Na+] [n-tetradecyl, sodium n-tetradecyl sulfate]
Inhibition (units/mg.) ([1]; Conc. of Test Solution 1 Mg/ml): 960,000 units/mg. | Inhibition (units/mg.) ([1]; Conc. of Test Solution 10 Mg/ml): 14,200 units/mg. | Amount of sodium n-tetradecyl sulfate released Per day Calc. ([2]; Day 7): 1.3 µg | Amount of sodium n-tetradecyl sulfate released Per 7 days ([2]; Day 7, 10 ml water 37° C.): 9 µg | Amount of sodium n-tetradecyl sulfate released Per 7 days ([2]; Day 14): 1.9 µg | Amount of sodium n-tetradecyl sulfate released Per day Calc. ([2]; Day 14): 0.3 µg | Amount of sodium n-tetradecyl sulfate released Per 7 days ([2]; Day 21): 34.2 µg | Amount of sodium n-tetradecyl sulfate released Per day Calc. ([2]; Day 21): 4.9 µg | Amount of sodium n-tetradecyl sulfate released Per 7 days ([2]; Day 28): 160 µg | Amount of sodium n-tetradecyl sulfate released Per day Calc. ([2]; Day 28): 22.8 µg | Amount of sodium n-tetradecyl sulfate released Per 7 days ([2]; Day 35): 290 µg | Amount of sodium n-tetradecyl sulfate released Per day Calc. ([2]; Day 35): 41.4 µg | Amount of sodium n-tetradecyl sulfate released Per 7 days ([2]; Day 42): 144 µg | Amount of sodium n-tetradecyl sulfate released Per day Calc. ([2]; Day 42): 20.6 µg | Amount of sodium n-tetradecyl sulfate released Per 7 days ([2]; Day 49): 947 µg | Amount of sodium n-tetradecyl sulfate released Per day Calc. ([2]; Day 49): 135.3 µg | Amount of sodium n-tetradecyl sulfate released Per 7 days ([2]; Day 56): 133 µg | Amount of sodium n-tetradecyl sulfate released Per day Calc. ([2]; Day 56): 19 µg | Amount of sodium n-tetradecyl sulfate released Per 7 days ([2]; Day 63): 111 µg | Amount of sodium n-tetradecyl sulfate released Per day Calc. ([2]; Day 63): 16 µg | Amount of sodium n-tetradecyl sulfate released Per 7 days ([2]; Day 70): 333 µg | Amount of sodium n-tetradecyl sulfate released Per day Calc. ([2]; Day 70): 47.5 µg | Amount of sodium n-tetradecyl sulfate released Per 7 days ([2]; Day 77): 111 µg | Amount of sodium n-tetradecyl sulfate released Per day Calc. ([2]; Day 77): 16.0 µg | Amount of sodium n-tetradecyl sulfate released Per 7 days ([2]; Day 84): 0 µg | Amount of sodium n-tetradecyl sulfate released Per day Calc. ([2]; Day 84): 0 µg | Amount of sodium n-tetradecyl sulfate released Per 7 days ([2]; Day 91): 105 µg | Amount of sodium n-tetradecyl sulfate released Per day Calc. ([2]; Day 91): 15 µg | Amount of sodium n-tetradecyl sulfate released Per 7 days ([2]; Day 98): 644 µg | Amount of sodium n-tetradecyl sulfate released Per day Calc. ([2]; Day 98): 92 µg | Amount of sodium n-tetradecyl sulfate released Per 7 days ([2]; Day 105): 1477 µg | Amount of sodium n-tetradecyl sulfate released Per day Calc. ([2]; Day 105): 211 µg | Amount of sodium n-tetradecyl sulfate released Per 7 days ([2]; Day 112): 430 µg | Amount of sodium n-tetradecyl sulfate released Per day Calc. ([2]; Day 112): 61.4 µg | Amount of sodium n-tetradecyl sulfate released Per 7 days ([2]; Day 119): 600 µg | Amount of sodium n-tetradecyl sulfate released Per day Calc. ([2]; Day 119): 85.7 µg | Amount of sodium n-tetradecyl sulfate released Per 7 days ([2]; Day 126): 1500 µg | Amount of sodium n-tetradecyl sulfate released Per day Calc. ([2]; Day 126): 214.3 µg | Amount of sodium n-tetradecyl sulfate released Per 7 days ([2]; Day 133): 2600 µg | Amount of sodium n-tetradecyl sulfate released Per day Calc. ([2]; Day 133): 371 µg | Amount of sodium n-tetradecyl sulfate released Per 7 days ([2]; Day 140): 4000 µg | Amount of sodium n-tetradecyl sulfate released Per day Calc. ([2]; Day 140): 571 µg | Percent of compound released after 140 days ([2]; initial amount 34.14 mg.): 37% | Total amount of compound released after 140 days ([2]; initial amount 34.14 mg.): 12.63 mg | Avg. No. of Embryos per animal [3]: 0 | No. of embryos [3]: 0 | pregnancies (rabbits): without any pregnancies noted | state of zona pellucida in presence of acrosin [4]: remains substantially intact | Embryos Per Animal (x + std. dev.) [5]: 0.5 ± 1.2 | Total No. of embryos [5]: 3 | LD50 (mice): 342 mg/kg
